The source of these data is patent publication US20250235543A1, “MODIFIED PROTEINS AND PROTEIN DEGRADERS” (Cullgen (Shanghai), Inc., priority 2021, published 2025).

One experiment deals with T1, DDB1 (Homo sapiens, UniProt Q16531, D705G/DEL396-460/DEL463-701/I704S/T703N).
T1 construct: His6 (N, cleaved yes); TEV protease cleavage site (N, cleaved yes); made in house; host or cells: SF9 insect cells, Bac-to-Bac baculovirus, pFastBacHTB vector
Briefly: SPR binding assay to immobilized DDB1ΔBPB. Particulars: binding affinities to DDB1. Here is the method:
The binding affinities of heterobifunctional compounds to DDB1 were determined by SPR assay (FIG. 1A-1B). Purified DDB1ΔBPB proteins were immobilized on a CM5 sensor chip, and a dose range of compound solutions were injected in multi-cycle kinetic format. Data were fit to a steady state model to provide equivalent dissociation constants (Kd).
Human DDB1ΔBPB (UniProt: Q16531. BPB domain, aa 396 to 705, is replaced with a GNGNSG linker) coding sequences were cloned into pFastBacHTB vector and were expressed in SF9 cells using Bac-to-Bac baculovirus expression system (Thermo Fisher Scientific). The expression constructs include an N-terminal His6-tag to facilitate the purification, and a TEV protease cleavage site in between. DDB1ΔBPB proteins were obtained from supernatant of cell lysates and purified through sequential application of Ni affinity column (Ni-NTA column, Bio-Rad) and size-exclusion column (Superdex 200 16/600GL column, GE Healthcare) chromatography. Protein tags were cleaved off by TEV protease, and the resulting untagged proteins were further purified by Ni affinity column. Purified proteins were verified by immunoblotting, analytic SEC, and LC-MS.
SPR studies were performed on a Biacore X100 plus instrument (GE Healthcare). Immobilization of purified DDB1ΔBPB was carried out at 25° C. using a CM5 sensor chip. The surface was pre-equilibrated in HBS-EP running buffer (10 mM HEPES, pH7.4, 150 mM NaCl, 3 mM EDTA, 0.05% P20), before it was activated with EDC/NHS. DDB1ΔBPB proteins were immobilized by amine coupling to a density of 10,000-12,000 resonance units (RUs) on flow cell FC2, whereas flow cell FC1 was used as reference. Both protein immobilized and reference surfaces were deactivated with 1M ethanolamine. All interaction experiments were performed at 25° C. Test compounds were prepared and serially diluted in HBS-EP running buffer containing final 5% DMSO (6-point two-fold serial dilution, 100 μM-3.125 μM final concentration of compounds). Compound solutions were injected individually in multi-cycle kinetic format without regeneration (flow rate 30 μl/min, association time 120 s, dissociation time 120 s). Sensorgrams from reference surfaces and blank injections were subtracted from the raw data (double-referencing) and the data was solvent-corrected prior to analysis. All data were fit to steady state affinity model using Biacore Evaluation Software to provide equivalent dissociation constants (Kd).

The next experiment has as its system cyclin D1. Briefly: Cyclin D1 percentage degradation in Calu-1 cells (immunoblotting). It is filed as cell-based. Particulars: 200 nM, 16 hours. In outline:
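Cells were rinsed once in cold PBS and lysed in cold RIPA buffer containing protease and phosphatase inhibitors, with gentle agitation at 4° C. for 30 min. Lysates were spun at 13,000 rpm for 10 min at 4° C., protein was measured by BCA, and samples were boiled in Laemmli buffer at 99° C. for 5 min before SDS-PAGE immunoblotting.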
(In general: Immunoblotting shows a protein as a band on a membrane.)

The target in the next experiment is T2, CDK4 (Homo sapiens, UniProt P11802).
T2 construct: endogenous in cells; host or cells: Calu-1
T2 sequence (P11802 2-303 limits assumed): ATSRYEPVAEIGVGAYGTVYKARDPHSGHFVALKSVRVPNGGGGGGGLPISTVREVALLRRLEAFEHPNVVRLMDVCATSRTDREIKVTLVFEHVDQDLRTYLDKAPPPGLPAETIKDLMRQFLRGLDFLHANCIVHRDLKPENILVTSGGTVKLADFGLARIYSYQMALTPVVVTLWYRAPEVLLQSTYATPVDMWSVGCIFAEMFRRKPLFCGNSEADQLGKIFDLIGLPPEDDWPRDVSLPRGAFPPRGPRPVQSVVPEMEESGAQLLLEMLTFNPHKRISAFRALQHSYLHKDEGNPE
T2 sequence (P24385 whole entry partner): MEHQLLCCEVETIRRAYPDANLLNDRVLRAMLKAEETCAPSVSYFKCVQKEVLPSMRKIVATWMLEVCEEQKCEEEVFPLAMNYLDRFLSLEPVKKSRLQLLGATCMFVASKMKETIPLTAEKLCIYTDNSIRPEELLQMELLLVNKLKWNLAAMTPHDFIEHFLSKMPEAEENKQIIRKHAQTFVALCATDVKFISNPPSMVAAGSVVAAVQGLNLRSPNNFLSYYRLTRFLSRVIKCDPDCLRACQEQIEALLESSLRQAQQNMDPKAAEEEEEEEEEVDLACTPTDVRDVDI
T2 sequence (Q16531 2-1140 limits assumed, further chain): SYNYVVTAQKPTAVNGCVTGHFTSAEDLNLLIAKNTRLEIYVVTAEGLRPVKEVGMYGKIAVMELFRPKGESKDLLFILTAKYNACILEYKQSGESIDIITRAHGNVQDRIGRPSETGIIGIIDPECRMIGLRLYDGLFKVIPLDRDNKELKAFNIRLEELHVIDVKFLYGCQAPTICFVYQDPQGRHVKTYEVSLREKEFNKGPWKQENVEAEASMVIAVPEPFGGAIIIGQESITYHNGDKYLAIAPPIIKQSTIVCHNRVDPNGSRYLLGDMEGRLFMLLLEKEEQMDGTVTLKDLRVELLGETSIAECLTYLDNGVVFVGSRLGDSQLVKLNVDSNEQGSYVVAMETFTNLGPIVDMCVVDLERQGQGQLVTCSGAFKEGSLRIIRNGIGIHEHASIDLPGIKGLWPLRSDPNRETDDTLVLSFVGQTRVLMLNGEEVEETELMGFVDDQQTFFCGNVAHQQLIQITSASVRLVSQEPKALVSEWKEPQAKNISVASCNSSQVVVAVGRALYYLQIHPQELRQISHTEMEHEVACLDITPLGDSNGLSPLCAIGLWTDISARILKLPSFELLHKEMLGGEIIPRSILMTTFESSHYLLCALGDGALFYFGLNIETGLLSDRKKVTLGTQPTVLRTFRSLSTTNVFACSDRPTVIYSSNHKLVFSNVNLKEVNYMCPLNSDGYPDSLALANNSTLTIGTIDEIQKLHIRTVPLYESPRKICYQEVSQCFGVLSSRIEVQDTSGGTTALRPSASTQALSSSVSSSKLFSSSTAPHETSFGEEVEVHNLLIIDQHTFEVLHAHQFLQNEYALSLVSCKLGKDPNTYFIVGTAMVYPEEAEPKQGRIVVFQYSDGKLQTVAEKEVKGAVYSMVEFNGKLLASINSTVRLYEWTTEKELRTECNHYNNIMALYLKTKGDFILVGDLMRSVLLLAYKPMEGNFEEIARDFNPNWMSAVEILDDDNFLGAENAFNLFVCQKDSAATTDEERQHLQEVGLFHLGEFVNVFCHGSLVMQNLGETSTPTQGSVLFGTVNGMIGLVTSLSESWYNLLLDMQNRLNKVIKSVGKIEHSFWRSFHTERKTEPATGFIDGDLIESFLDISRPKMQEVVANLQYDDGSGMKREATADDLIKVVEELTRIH
Briefly: CDK4 percentage degradation in Calu-1 cells (immunoblotting). The format is cell-based. The following applies: Calu-1 cells, 200 nM, 16 hours; read-out: CDK4 Degradation (200 nM). An outline of the steps:
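Cultured cells were rinsed once in cold PBS and lysed in cold RIPA buffer containing protease and phosphatase inhibitors, with gentle agitation at 4° C. for 30 min. Lysates were centrifuged at 13,000 rpm for 10 min at 4° C., and protein was quantified by BCA. Samples were then separated by SDS-PAGE, detected with ECL, and the CDK4 bands quantified in Image Lab.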

For a further experiment, the system named is P300/CBP. Kind of experiment: P300/CBP cellular protein degradation. It is filed as cell-based. Here is the method:
Cultured cells were washed with cold PBS once and lysed in cold RIPA buffer supplemented with protease inhibitors and phosphatase inhibitors (Beyotime Biotechnology). The solutions were then incubated at 4° C. for 30 min with gentle agitation to fully lysed cells. Cell lysates were centrifuged at 13,000 rpm for 10 min at 4° C. and pellets were discarded. Total protein concentrations in the lysates were determined following BCA assays (Beyotime Biotechnology). Cell lysates were mixed with Laemmli loading buffer and heated at 99° C. for 5 min. Proteins were resolved on SDS-PAGE and visualized using Western ECL Substrate kits on a ChemiDoc MP Imaging system (Bio-Rad). Protein bands were quantitated using the Image Lab software provided by Bio-Rad.

pKd: −log10 of the molar value.

What is called pKd is −log10 of the Kd, conventionally taken in molar units. A high value points to a small Kd.

T1 sequence (Q16531 other isoform, or with tags, fused parts or gaps DEL396-460/DEL463-701/T703N/I704S/D705G): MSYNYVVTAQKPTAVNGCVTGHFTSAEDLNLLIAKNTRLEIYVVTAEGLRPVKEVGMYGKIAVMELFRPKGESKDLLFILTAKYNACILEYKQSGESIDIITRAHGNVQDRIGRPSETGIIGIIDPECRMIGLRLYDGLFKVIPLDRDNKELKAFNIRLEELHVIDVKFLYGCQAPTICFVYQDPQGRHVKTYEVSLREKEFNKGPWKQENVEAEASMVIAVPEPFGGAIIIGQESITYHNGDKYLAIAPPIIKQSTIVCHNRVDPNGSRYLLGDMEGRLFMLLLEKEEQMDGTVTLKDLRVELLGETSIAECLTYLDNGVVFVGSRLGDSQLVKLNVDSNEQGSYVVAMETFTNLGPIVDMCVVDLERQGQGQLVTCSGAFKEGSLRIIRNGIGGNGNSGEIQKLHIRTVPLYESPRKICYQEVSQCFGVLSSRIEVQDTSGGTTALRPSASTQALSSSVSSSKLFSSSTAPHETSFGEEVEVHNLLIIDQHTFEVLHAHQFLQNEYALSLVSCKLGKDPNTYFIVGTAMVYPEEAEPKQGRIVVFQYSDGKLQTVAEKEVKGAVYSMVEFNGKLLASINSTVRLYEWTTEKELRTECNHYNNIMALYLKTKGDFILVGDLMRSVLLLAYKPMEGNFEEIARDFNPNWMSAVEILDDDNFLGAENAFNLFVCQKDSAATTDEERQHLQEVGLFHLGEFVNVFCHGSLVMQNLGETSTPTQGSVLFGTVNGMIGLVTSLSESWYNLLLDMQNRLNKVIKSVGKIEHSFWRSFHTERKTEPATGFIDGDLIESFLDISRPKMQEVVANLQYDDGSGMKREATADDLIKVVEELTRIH

As to `COC(=O)c1nc(NC(=O)c2ccc(NCCOCCOCCOCCOCCOCCNC(=O)CN3CCN(c4ccc(Nc5ncc6c(C)c(C(C)=O)c(=O)n(C7CCCC7)c6n5)nc4)CC3)cc2C)sc1C` [CPD-033, Methyl 2-(4-((1-(4-(6-((6-acetyl-8-cyclopentyl-5-methyl-7-oxo-7,8-dihydropyrido[2,3-d]pyrimidin-2-yl)amino)pyridin-3-yl)piperazin-1-yl)-2-oxo-6,9,12,15,18-pentaoxa-3-azaicosan-20-yl)amino)-2-methylbenzamido)-5-methylthiazole-4-carboxylate], the pKd on DDB1 was > 4.70. For the same compound, the “CyclinD1 Degradation (200 nM)” value with cyclin D1 is given as “A (protein percentage degradation >=80%)”. Moreover, the inhibition at 0.2 µM at CDK4 is > 80%.
Taken in the same sequence, the figures for `CC(=O)c1c(C)c2cnc(Nc3ccc(N4CCN(CC(=O)NCCOCCOCCOCCOCCOCCNc5ccc(C(=O)Nc6nc(C(C)C)c(C)s6)c(C)c5)CC4)cn3)nc2n(C2CCCC2)c1=O` [CPD-043, 4-((1-(4-(6-((6-Acetyl-8-cyclopentyl-5-methyl-7-oxo-7,8-dihydropyrido[2,3-d]pyrimidin-2-yl)amino)pyridin-3-yl)piperazin-1-yl)-2-oxo-6,9,12,15,18-pentaoxa-3-azaicosan-20-yl)amino)-N-(4-isopropyl-5-methylthiazol-2-yl)-2-methylbenzamide] were > 4.70, “A (protein percentage degradation >=80%)” and > 80%.
On to `CC(=O)c1c(C)c2cnc(Nc3ccc(N4CCN(CC(=O)NCCOCCOCCOCCOCCOCCNc5ccc(C(=O)Nc6nc(Br)c(C)s6)c(C)c5)CC4)cn3)nc2n(C2CCCC2)c1=O` [CPD-044, 4-((1-(4-(6-((6-Acetyl-8-cyclopentyl-5-methyl-7-oxo-7,8-dihydropyrido[2,3-d]pyrimidin-2-yl)amino)pyridin-3-yl)piperazin-1-yl)-2-oxo-6,9,12,15,18-pentaoxa-3-azaicosan-20-yl)amino)-N-(4-bromo-5-methylthiazol-2-yl)-2-methylbenzamide], for which the pKd at DDB1 was > 4.70. In addition, the “CyclinD1 Degradation (200 nM)” value in the experiment with cyclin D1 was “A (protein percentage degradation >=80%)”. For the same compound, the inhibition at 0.2 µM at CDK4 lay in the range of 50 to 80%.
Taken in the same sequence, the figures for `CC(=O)c1c(C)c2cnc(Nc3ccc(N4CCN(CC(=O)NCCOCCOCCOCCOCCOCCNc5ccc(C(=O)Nc6nc(C7CC7)c(C)s6)c(C)c5)CC4)cn3)nc2n(C2CCCC2)c1=O` [CPD-046, 4-((1-(4-(6-((6-Acetyl-8-cyclopentyl-5-methyl-7-oxo-7,8-dihydropyrido[2,3-d]pyrimidin-2-yl)amino)pyridin-3-yl)piperazin-1-yl)-2-oxo-6,9,12,15,18-pentaoxa-3-azaicosan-20-yl)amino)-N-(4-cyclopropyl-5-methylthiazol-2-yl)-2-methylbenzamide] were > 4.70, “A (protein percentage degradation >=80%)” and > 80%.
Take `CCc1nc(NC(=O)c2ccc(NCCOCCOCCOCCOCCOCCNC(=O)CN3CCN(c4ccc(Nc5ncc6c(C)c(C(C)=O)c(=O)n(C7CCCC7)c6n5)nc4)CC3)cc2C)sc1C` [CPD-047, 4-((1-(4-(6-((6-Acetyl-8-cyclopentyl-5-methyl-7-oxo-7,8-dihydropyrido[2,3-d]pyrimidin-2-yl)amino)pyridin-3-yl)piperazin-1-yl)-2-oxo-6,9,12,15,18-pentaoxa-3-azaicosan-20-yl)amino)-N-(4-ethyl-5-methylthiazol-2-yl)-2-methylbenzamide]: the pKd at DDB1 is > 4.70. The “CyclinD1 Degradation (200 nM)” value in the experiment with cyclin D1 is “A (protein percentage degradation >=80%)”. For the same compound, on CDK4, the inhibition at 0.2 µM was > 80%.
Taken in the same sequence, the figures for `CC(=O)c1c(C)c2cnc(Nc3ccc(N4CCN(CC(=O)NCCOCCOCCOCCC(=O)Nc5ccccc5C(=O)Nc5nc(C)c(C)s5)CC4)cn3)nc2n(C2CCCC2)c1=O` [CPD-114, 2-(1-(4-(6-((6-Acetyl-8-cyclopentyl-5-methyl-7-oxo-7,8-dihydropyrido[2,3-d]pyrimidin-2-yl)amino)pyridin-3-yl)piperazin-1-yl)-2-oxo-6,9,12-trioxa-3-azapentadecan-15-amido)-N-(4,5-dimethylthiazol-2-yl)benzamide] were > 4.70, “A (protein percentage degradation >=80%)” and > 80%.
Taken in the same sequence, the figures for `CC(=O)c1c(C)c2cnc(Nc3ccc(N4CCN(CC(=O)NCCOCCOCCC(=O)Nc5ccccc5C(=O)Nc5nc(C)c(C)s5)CC4)cn3)nc2n(C2CCCC2)c1=O` [CPD-115, 2-(3-(2-(2-(2-(4-(6-((6-Acetyl-8-cyclopentyl-5-methyl-7-oxo-7,8-dihydropyrido[2,3-d]pyrimidin-2-yl)amino)pyridin-3-yl)piperazin-1-yl)acetamido)ethoxy)ethoxy)propanamido)-N-(4,5-dimethylthiazol-2-yl)benzamide] were > 4.70, “A (protein percentage degradation >=80%)” and > 80%.
Regarding `CC(=O)N1CCc2c(c(N3CCCc4cc(-c5cnn(C)c5)c(C(F)F)cc43)nn2C2CCN(CC(=O)NCCNc3ccc(C(=O)Nc4ncc(C)s4)c(C)c3)CC2)C1` [CPD-189, 4-((2-(2-(4-(5-Acetyl-3-(7-(difluoromethyl)-6-(1-methyl-1H-pyrazol-4-yl)-3,4-dihydroquinolin-1(2H)-yl)-4,5,6,7-tetrahydro-1H-pyrazolo[4,3-c]pyridin-1-yl)piperidin-1-yl)acetamido)ethyl)amino)-2-methyl-N-(5-methylthiazol-2-yl)benzamide], in the experiment on P300/CBP, the “P300/CBP Degradation (100 nM)” value is listed as “D (degradation activity < 30%)”.
Still for that read-out and setting: to `CC(=O)N1CCc2c(c(N3CCCc4cc(-c5cnn(C)c5)c(C(F)F)cc43)nn2C2CCN(CC(=O)NCCCCCNc3ccc(C(=O)Nc4ncc(C)s4)c(C)c3)CC2)C1` [CPD-192, 4-((5-(2-(4-(5-Acetyl-3-(7-(difluoromethyl)-6-(1-methyl-1H-pyrazol-4-yl)-3,4-dihydroquinolin-1(2H)-yl)-4,5,6,7-tetrahydro-1H-pyrazolo[4,3-c]pyridin-1-yl)piperidin-1-yl)acetamido)pentyl)amino)-2-methyl-N-(5-methylthiazol-2-yl)benzamide] belongs “D (degradation activity < 30%)”; to `CC(=O)N1CCc2c(c(N3CCCc4cc(-c5cnn(C)c5)c(C(F)F)cc43)nn2C2CCN(CC(=O)NCCCCCCNc3ccc(C(=O)Nc4ncc(C)s4)c(C)c3)CC2)C1` [CPD-193, 4-((6-(2-(4-(A-Acetyl-3-(7-(difluoromethyl)-6-(1-methyl-1H-pyrazol-4-yl)-3,4-dihydroquinolin-1(2H)-yl)-4,5,6,7-tetrahydro-1H-pyrazolo[4,3-c]pyridin-1-yl)piperidin-1-yl)acetamido)hexyl)amino)-2-methyl-N-(5-methylthiazol-2-yl)benzamide], “D (degradation activity < 30%)”; to `CC(=O)N1CCc2c(c(N3CCCc4cc(-c5cnn(C)c5)c(C(F)F)cc43)nn2C2CCN(CC(=O)NCCCCCCCNc3ccc(C(=O)Nc4ncc(C)s4)c(C)c3)CC2)C1` [CPD-194, 4-((7-(2-(4-(5-Acetyl-3-(7-(difluoromethyl)-6-(1-methyl-1H-pyrazol-4-yl)-3,4-dihydroquinolin-1(2H)-yl)-4,5,6,7-tetrahydro-1H-pyrazolo[4,3-c]pyridin-1-yl)piperidin-1-yl)acetamido)heptyl)amino)-2-methyl-N-(5-methylthiazol-2-yl)benzamide], “D (degradation activity < 30%)”.
